Reference: PMC11333937 (Science translational medicine, 2024)
Where two headings read alike, the source gives them in different places.

Experiments:
[1] = test system: SARS-like bat-CoV RsSHC014; assay type: in vivo, mouse
SARS-CoV-2 WA/1 [2] = experiment: microbe, parasite or virus in culture; assay type: cell-based; conditions: Severe acute respiratory syndrome coronavirus 2, read-out: EC50, inhibition of SARS-CoV-2 replication
SARS-CoV-2 WA/1 [3] = assay type: cell-based
MERS-CoV = assay type: cell-based; conditions: HAE, two donors, 10, 1, 0.1 μM, MOI 0.5, 72 hpi
[4] = test system: SARS-CoV-2 Omicron (B.1.1.529/BA.1); conditions: mouse, in vivo
bat-CoV RsSHC014 = assay type: cell-based
[5] = not told; cited from earlier work
SARS-CoV-2 Omicron BA.1 = assay type: cell-based
[6] = Mouse GS-5245 pharmacokinetic study; conditions: 30 mg/kg GS-5245 oral, timepoints over 24 hr, three mouse strains
SARS-CoV Urbani = assay type: cell-based; conditions: HAE, two donors, 10, 1, 0.1 μM, MOI 0.5, 72 hpi
[7] = test system: primary human airway epithelial (HAE) cells
[8] = direct oral dosing of GS-441524, non-human primates; cited from earlier work

SMILES: CC(C)C(=O)OC[C@H]1O[C@@](C#N)(c2ccc3c(N)ncnn23)[C@H](O)[C@@H]1O [GS-5245]
- viral titers and gross lung pathology ([1]; 10 mg/kg BID, 12 or 24 hpi, 4 dpi): did not exhibit reduced viral titers
- body weight compared to vehicle-treated mice ([1]; 30 mg/kg BID initiated at 12 hpi): increased weight
- virus lung titers and gross lung pathology ([1]; 30 mg/kg BID, irrespective of initiation time (12 or 24 hpi), 4 dpi): reduced virus lung titers and gross lung pathology
- acute lung injury scores (ATS and DAD) ([1]; 30 mg/kg initiated 24 hpi, 4 dpi): reductions in DAD scores only
- acute lung injury scores (ATS and DAD) ([1]; 30 mg/kg initiated at 12 hpi, 4 dpi): reduced acute lung injury scores with both scoring tools
- EC50 (SARS-CoV-2 WA/1 [2]): 740 nM
- infectious virus production (PFU in apical washes) (SARS-CoV-2 WA/1 [3]): dose-dependent reduction in infectious virus production
- cytotoxicity (LLC-MK2-TMPRSS2 cells): without cytotoxicity
- cytotoxicity (A549-hACE2 cells): without cytotoxicity
- infectious virus production (PFU in apical washes) (MERS-CoV): dose-dependent reduction in infectious virus production
- ATS ALI and DAD scores [4]: Unlike ATS ALI scores (Fig. 6D), DAD scores were different
- lung viral titers relative to vehicle [4]: lower lung viral titers
- macroscopic lung pathology [4]: less macroscopic lung pathology
- infectious virus production (PFU in apical washes) (bat-CoV RsSHC014): dose-dependent reduction in infectious virus production
- cellular permeability [5]: increased cellular permeability over GS-441524
- infectious virus production (PFU in apical washes) (SARS-CoV-2 Omicron BA.1): dose-dependent reduction in infectious virus production
- intact GS-5245 prodrug in plasma [6]: No intact GS-5245 prodrug was observed at any timepoint sampled
- infectious virus production (PFU in apical washes) (SARS-CoV Urbani): dose-dependent reduction in infectious virus production
- cytotoxicity in HAE [7]: without measurable cytotoxicity

SMILES: N#C[C@@]1(c2ccc3c(N)ncnn23)O[C@H](CO)[C@@H](O)[C@H]1O [GS-441524]
- EC50 (SARS-CoV-2 WA/1 [2]): 4600 nM
- cytotoxicity (LLC-MK2-TMPRSS2 cells): without cytotoxicity
- oral bioavailability [8]: low bioavailability

SMILES: CC(C)(C)[C@H](NC(=O)C(F)(F)F)C(=O)N1C[C@H]2[C@@H]([C@H]1C(=O)N[C@H](C#N)C[C@@H]1CCNC1=O)C2(C)C [nirmatrelvir]
- EC50 (SARS-CoV-2 WA/1 [2]): 70 nM

SMILES: CCC(CC)COC(=O)[C@H](C)N[P@](=O)(OC[C@H]1O[C@@](C#N)(c2ccc3c(N)ncnn23)[C@H](O)[C@@H]1O)Oc1ccccc1 [remdesivir]
- EC50 (SARS-CoV-2 WA/1 [2]): 190 nM
- cytotoxicity (LLC-MK2-TMPRSS2 cells): without cytotoxicity
